From ChEMBL document CHEMBL1122788, “Quantitative relationships between alpha-adrenergic activity and binding affinity of alpha-adrenoceptor agonists and antagonists” (J Med Chem, 1984) come the findings set out here.

Assay [1] deals with T1, Adrenergic receptor alpha-2 (Rattus norvegicus, UniProt P22086+P19328+P22909).
T1 sequence (P22086 whole entry): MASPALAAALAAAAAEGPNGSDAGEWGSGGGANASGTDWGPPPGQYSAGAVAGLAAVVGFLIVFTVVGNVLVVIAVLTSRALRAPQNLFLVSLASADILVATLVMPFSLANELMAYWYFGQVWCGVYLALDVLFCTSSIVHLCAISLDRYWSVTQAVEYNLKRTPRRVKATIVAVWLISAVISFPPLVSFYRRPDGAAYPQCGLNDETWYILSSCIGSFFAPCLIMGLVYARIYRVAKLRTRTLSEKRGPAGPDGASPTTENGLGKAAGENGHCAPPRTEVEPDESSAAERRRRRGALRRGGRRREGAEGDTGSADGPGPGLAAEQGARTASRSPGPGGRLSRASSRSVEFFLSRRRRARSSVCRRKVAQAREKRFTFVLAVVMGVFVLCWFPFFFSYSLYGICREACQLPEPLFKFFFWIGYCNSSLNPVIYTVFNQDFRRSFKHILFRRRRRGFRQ
T1 sequence (P19328 whole entry): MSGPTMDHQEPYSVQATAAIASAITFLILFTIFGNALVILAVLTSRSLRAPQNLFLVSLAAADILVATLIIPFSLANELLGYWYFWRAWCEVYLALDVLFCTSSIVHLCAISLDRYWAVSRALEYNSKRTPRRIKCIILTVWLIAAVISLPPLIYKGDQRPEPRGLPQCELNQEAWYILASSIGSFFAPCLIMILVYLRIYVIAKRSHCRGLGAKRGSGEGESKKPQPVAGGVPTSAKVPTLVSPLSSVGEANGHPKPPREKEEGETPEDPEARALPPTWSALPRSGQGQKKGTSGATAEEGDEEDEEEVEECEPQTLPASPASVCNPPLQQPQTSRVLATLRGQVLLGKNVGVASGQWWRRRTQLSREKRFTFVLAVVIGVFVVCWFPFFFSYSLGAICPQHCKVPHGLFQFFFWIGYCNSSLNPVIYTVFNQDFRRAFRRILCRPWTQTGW
T1 sequence (P22909 whole entry): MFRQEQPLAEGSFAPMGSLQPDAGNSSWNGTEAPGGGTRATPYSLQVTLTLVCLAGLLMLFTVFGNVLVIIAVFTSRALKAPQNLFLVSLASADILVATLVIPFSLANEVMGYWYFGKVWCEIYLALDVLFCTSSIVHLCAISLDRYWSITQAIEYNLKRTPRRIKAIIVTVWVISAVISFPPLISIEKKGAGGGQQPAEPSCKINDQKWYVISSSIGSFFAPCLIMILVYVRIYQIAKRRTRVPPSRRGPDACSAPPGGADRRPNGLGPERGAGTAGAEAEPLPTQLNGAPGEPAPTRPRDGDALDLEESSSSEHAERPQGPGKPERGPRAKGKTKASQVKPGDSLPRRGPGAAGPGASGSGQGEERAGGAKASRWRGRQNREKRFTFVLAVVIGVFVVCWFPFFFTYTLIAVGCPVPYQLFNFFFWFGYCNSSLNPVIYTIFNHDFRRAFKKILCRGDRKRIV
Briefly: Inhibition of specific [3H]clonidine binding (0.4 nM) to rat brain membranes alpha-2 adrenergic receptor. The assay is classed as cell membranes, Membrane.

The target of assay [2] is T2, Adrenergic receptor alpha-1 (Homo sapiens, UniProt P35348+P25100+P35368).
T2 sequence (P35348 whole entry): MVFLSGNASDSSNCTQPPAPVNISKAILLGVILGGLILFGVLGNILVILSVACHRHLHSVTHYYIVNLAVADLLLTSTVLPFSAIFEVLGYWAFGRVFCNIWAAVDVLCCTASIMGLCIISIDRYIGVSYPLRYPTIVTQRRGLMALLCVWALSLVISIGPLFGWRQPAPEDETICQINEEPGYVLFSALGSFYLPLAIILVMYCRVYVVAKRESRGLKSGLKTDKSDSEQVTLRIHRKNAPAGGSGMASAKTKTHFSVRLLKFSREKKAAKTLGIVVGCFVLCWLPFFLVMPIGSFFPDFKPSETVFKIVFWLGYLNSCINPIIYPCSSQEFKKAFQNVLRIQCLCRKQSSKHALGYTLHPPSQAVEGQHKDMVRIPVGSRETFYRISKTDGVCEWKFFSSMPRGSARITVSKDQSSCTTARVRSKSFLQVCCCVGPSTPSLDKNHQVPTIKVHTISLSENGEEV
T2 sequence (P25100 whole entry): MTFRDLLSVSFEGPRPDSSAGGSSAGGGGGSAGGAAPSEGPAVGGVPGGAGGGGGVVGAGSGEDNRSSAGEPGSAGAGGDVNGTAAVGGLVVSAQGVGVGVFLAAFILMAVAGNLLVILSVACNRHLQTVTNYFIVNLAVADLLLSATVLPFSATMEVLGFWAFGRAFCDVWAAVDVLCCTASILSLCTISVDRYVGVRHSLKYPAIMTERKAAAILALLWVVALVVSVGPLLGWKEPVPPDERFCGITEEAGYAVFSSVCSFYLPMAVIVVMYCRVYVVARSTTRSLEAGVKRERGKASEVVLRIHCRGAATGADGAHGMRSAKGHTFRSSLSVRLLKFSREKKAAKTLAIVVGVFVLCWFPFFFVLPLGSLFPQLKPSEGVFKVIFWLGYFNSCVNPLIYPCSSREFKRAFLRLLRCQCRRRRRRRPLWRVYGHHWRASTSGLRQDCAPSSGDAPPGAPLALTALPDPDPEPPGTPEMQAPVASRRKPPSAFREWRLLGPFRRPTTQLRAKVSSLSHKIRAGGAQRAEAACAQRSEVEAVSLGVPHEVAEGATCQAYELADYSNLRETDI
T2 sequence (P35368 whole entry): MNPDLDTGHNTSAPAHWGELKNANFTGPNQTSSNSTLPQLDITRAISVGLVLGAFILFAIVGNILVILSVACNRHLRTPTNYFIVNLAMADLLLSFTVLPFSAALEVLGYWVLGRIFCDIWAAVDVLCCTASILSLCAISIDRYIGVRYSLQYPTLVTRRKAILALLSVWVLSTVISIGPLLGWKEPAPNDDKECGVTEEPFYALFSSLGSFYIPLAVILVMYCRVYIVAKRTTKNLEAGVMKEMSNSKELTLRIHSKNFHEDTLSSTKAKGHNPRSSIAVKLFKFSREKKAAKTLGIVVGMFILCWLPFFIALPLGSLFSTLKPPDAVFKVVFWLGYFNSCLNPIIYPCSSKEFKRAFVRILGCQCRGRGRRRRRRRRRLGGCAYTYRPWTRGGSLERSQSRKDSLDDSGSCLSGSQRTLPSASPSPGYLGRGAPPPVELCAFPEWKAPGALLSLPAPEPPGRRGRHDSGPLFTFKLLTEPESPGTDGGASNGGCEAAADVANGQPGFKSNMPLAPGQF
Briefly: In vitro antagonist activity against (-)-phenylephrine or (-)-norepinephrine-induced alpha1-adrenoceptor-mediated vasoconstriction of rabbit isolated pulmonary artery. In kind it is functional, Oryctolagus cuniculus. The settings on record: target entry is the homologue from another species.

The target of assay [3] is T1, Adrenergic receptor alpha-2. Briefly: Antagonist activity against B-HT 933-induced alpha-2-adrenoceptor-mediated vasoconstriction in pithed normotensive rats. In kind it is functional.

Regarding `C=CCN1Cc2ccccc2-c2ccccc2C1` [AZAPETINE], the IC50 in assay [1] turned out to be 1300 nM. In addition, the pA2 in assay [2] turned out to be 6.96; in assay [3], 4.88.
For `CN1C[C@H](C(=O)N[C@]2(C)O[C@@]3(O)[C@@H]4CCCN4C(=O)[C@H](Cc4ccccc4)N3C2=O)C[C@@H]2c3cccc4[nH]cc(c34)C[C@H]21` [DIHYDROERGOTAMINE] the same measures were 3.7 nM, 7.55 and 7.25.

Usually IC50 stands for the concentration that gives 50% inhibition. A higher IC50 goes with weaker potency. A word on the pA2: it is the negative logarithm of the molar antagonist concentration that doubles the agonist concentration needed for the same response.
